Where a name gives a salt, the structure may show the parent alone.
Assay: Flowability and compressibility, Carr's Index
Format: physicochemical
Details: pure pharmaceutical substance
Description: However, when Dimethicone was incorporated according to the present invention, a decrease of 40-50% of the Carr Index was observed, which indicates an improvement of the flow properties of Fluvastatin and Atorvastatin and therefore the use of a direct compression for the final formulation.

- mean Carr's Index: 24-25%
Structure (SMILES): CC(C)c1c(C(=O)Nc2ccccc2)c(-c2ccccc2)c(-c2ccc(F)cc2)n1CC[C@@H](O)C[C@@H](O)CC(=O)O (relative stereo) [Atorvastatin, [R—(R*,R*)]-2-(4-fluorophenyl)-b,d-dihydroxy-5-(1-methylethyl)-3-phenyl-4 [(phenylamino)carbonyl]-1H-pyrrole-1-heptanoic acid, calcium salt (2:1) trihydrate]

From US20080213356A1, “Pharmaceutical Composition Containing Hmg-Coa Reductase Inhibitor And Method For The Preparation Thereof” (PHARMATHEN S.A., priority 2005, published 2008)
